The subject of this experiment is HA-CDP138. The experiment is described as follows: Phosphorylation of HA-CDP138 in CHO-T cells (anti-HA IP, PAS antibody blot). To be noted: insulin 100 nM, 15 min. The format is cell-based, hamster. From the text:
FIG. 1, panels A-D, show an uncharacterized C2 domain-containing protein encoded by 5730419I09Rik is a novel phosphoprotein identified in insulin-stimulated adipocytes using a SILAC phosphoproteomic approach. (A): Schematic procedure for SILAC quantitative proteomics used for identification and quantification of peptide from CDP138 (5730419I09Rik). Top right panel: quantification of CDP138 peptide from different groups of adipocytes. Lower right panel: Schematic diagram of CDP138 and the identified phosphorylation sites. (B): Confirmation of CDP138 phosphorylation induced by insulin. CHO-T cells expressing HA-CDP138, or differentiated 3T3-L1 adipocytes were treated with or without insulin (100 nM) for 15 min. A third sample was pretreated with wortmannin (100 nM, WM) for 20 min or LY294002 (50 μM, LY) for 1 hour before insulin stimulation. […] CDP138, pS473-Akt and Akt protein were also detected with total cell lysates. […] Whole cell extracts (25 μg total protein) from different tissues (lean mice, left panel) and epididymal fat pads from both ob/ob and lean mice (24 weeks old, Jackson Lab, Bar Harbor, Me.; middle panel) were analyzed by immunoblotting with antibodies against CDP138, IRS-1, Akt, Erk1/2, and β-actin. Right panel: quantification of CDP138 protein levels in fat tissues from lean and obese mice. […]

In the case of insulin, the “phosphorylation of HA-tagged CDP138 detected with PAS antibodies” value is listed as “stimulates phosphorylation”.

(Values after patent US20120204273A1, “COMPOSITIONS RELATING TO A PHOSPHOPROTEIN AND METHODS OF USE” (SANFORD-BURNHAM MEDICAL RESEARCH INSTITUTE, priority 2010, published 2012).)
